# Assay results reported in article PMC5717224, “New Hybrid Hydrazinyl Thiazole Substituted Chromones: As Potential α-Amylase Inhibitors and Radical (DPPH & ABTS) Scavengers” (Scientific Reports, 2017).
# What was measured:
# [1] = DPPH free radical scavenging assay; conditions: absorbance 517 nm, 20 min incubation; read-out: DPPH radical scavenging activity IC50 ± SEM
# Description: The ability of the sample to scavenge, 2-diphenyl-1-picrylhydrazyl (DPPH) free radicals was evaluated by standard method. The sample solutions were prepared in absolute alcohol, ranging from 0.01 mg/mL to 1 mg/mL. A total of 500 μL of sample was added with 500 µL of 2 µmol DPPH solution. After 20 min of incubation, the samples were placed in the dark at room temperature, the absorbance was taken at 517 nm. 500 µL of prepared DDPH solution and 500 µL of absolute alcohol were used as control. The similar procedure was repeated for ascorbic acid as standard[41],[42].
# (§1) The percentage inhibition of radical scavenging activity was calculated as illustrated, %Inhibition=(AbsorbanceControl−AbsorbanceSample)/AbsorbanceControl×100
# [2] = ABTS free radical cation scavenging assay; conditions: absorbance 734 nm, 30 min incubation; read-out: ABTS radical scavenging activity IC50 ± SEM
# Description: The (ABTS+) 2,2ʹ-azino-bis(3-ethylbenzothiazoline-6-sulphonic acid) free radical cation scavenging ability of the compounds was determined by standard method. 7 mM ABTS was dissolved in distilled water and 2.45 mM potassium persulfate was added. The solution was kept in the dark for 12–16 h at room temperature. The sample solutions were prepared in absolute alcohol ranging from 0.01 mg/mL to 1 mg/mL. The samples were added with ABTS solution and incubated for 30 min. The absorbance was taken at 734 nm and the procedure was repeated for ascorbic acid as standard.
# as §1
SMILES,IC50 [1],IC50 [2],melting point
"O=c1c(/C=N\Nc2nc(-c3cccc([N+](=O)[O-])c3)cs2)coc2ccccc12 [Compound 13, (Z)-3-((2-(4-(3-Nitrophenyl)thiazol-2-yl)hydrazono)methyl)-4H-chromen-4-one]",1740 ± 40 nM,1890 ± 50 nM,235 to 237 °C
"O=Cc1coc2ccccc2c1=O [Compound 1, 4-Oxo-4H-chromene-3-carbaldehyde]",2230 ± 790 nM,3740 ± 600 nM,
"O=c1c(/C=N\Nc2nc(-c3ccccc3)cs2)coc2ccccc12 [Compound 5, (Z)-3-((2-(4-Phenylthiazol-2-yl)hydrazono)methyl)-4H-chromen-4-one]",1110 ± 150 nM,1080 ± 150 nM,223 to 225 °C
"O=c1c(/C=N\Nc2nc(-c3ccc(-c4ccccc4)cc3)cs2)coc2ccccc12 [Compound 15, (Z)-3-((2-(4-(Biphenyl-4-yl)thiazol-2-yl)hydrazono)methyl)-4H-chromen-4-one]",1410 ± 50 nM,1640 ± 40 nM,234 to 236 °C
"O=c1c(/C=N\Nc2nc(-c3cccc(Br)c3)cs2)coc2ccccc12 [Compound 8, (Z)-3-((2-(4-(3-Bromophenyl)thiazol-2-yl)hydrazono)methyl)-4H-chromen-4-one]",912 ± 230 nM,914 ± 190 nM,225 to 227 °C
"O=c1c(/C=N\Nc2nc(-c3ccc(Cl)c(Cl)c3)cs2)coc2ccccc12 [Compound 9, (Z)-3-((2-(4-(3,4-Dichlorophenyl)thiazol-2-yl)hydrazono)methyl)-4H-chromen-4-one]",314 ± 120 nM,784 ± 120 nM,245 to 247 °C
"O=c1c(/C=N\Nc2nc(-c3ccc(Cl)cc3)cs2)coc2ccccc12 [Compound 11, (Z)-3-((2-(4-(4-Chlorophenyl)thiazol-2-yl)hydrazono)methyl)-4H-chromen-4-one]",922 ± 220 nM,918 ± 140 nM,239 to 241 °C
"O=c1c(/C=N\Nc2nc(-c3cccc(O)c3)cs2)coc2ccccc12 [Compound 6, (Z)-3-((2-(4-(3-Hydroxyphenyl)thiazol-2-yl)hydrazono)methyl)-4H-chromen-4-one]",1900 ± 30 nM,1892 ± 10 nM,
"Cc1ccc2occ(C=O)c(=O)c2c1 [Compound 2, 6-Methyl-4-oxo-4H-chromene-3-carbaldehyde]",2230 ± 600 nM,2230 ± 60 nM,173 to 175 °C
"O=C1O[C@H]([C@@H](O)CO)C(O)=C1O [Ascorbic acid, reference compound]",330 ± 180 nM,530 ± 300 nM,
"O=c1c(/C=N\Nc2nc(-c3cccc(Cl)c3)cs2)coc2ccccc12 [Compound 12, (Z)-3-((2-(4-(3-Chlorophenyl)thiazol-2-yl)hydrazono)methyl)-4H-chromen-4-one]",1050 ± 30 nM,1080 ± 80 nM,228 to 230 °C
"N#Cc1ccc(-c2csc(N/N=C\c3coc4ccccc4c3=O)n2)cc1 [Compound 14, (Z)-4-(2-(2-((4-Oxo-4H-chromen-3-yl)methylene)hydrazinyl)thiazol-4-yl)benzonitrile]",1290 ± 100 nM,1260 ± 70 nM,225 to 227 °C
"O=c1c(/C=N\Nc2nc(-c3ccc(Cl)cc3Cl)cs2)coc2ccccc12 [Compound 10, (Z)-3-((2-(4-(2,4-Dichlorophenyl)thiazol-2-yl)hydrazono)methyl)-4H-chromen-4-one]",90 ± 170 nM,677 ± 260 nM,243 to 245 °C
"O=c1c(/C=N\Nc2nc(-c3ccc(Br)cc3)cs2)coc2ccccc12 [Compound 7, (Z)-3-((2-(4-(4-Bromophenyl)thiazol-2-yl)hydrazono)methyl)-4H-chromen-4-one]",892 ± 90 nM,830 ± 250 nM,230 to 232 °C
"NC(=S)N/N=C\c1coc2ccccc2c1=O [Compound 3, (Z)-2-((4-Oxo-4H-chromen-3-yl)methylene) hydrazinecarbothioamide]",1900 ± 60 nM,1920 ± 90 nM,240 to 242 °C
"Cc1ccc2occ(/C=N\NC(N)=S)c(=O)c2c1 [Compound 4, (Z)-2-((6-Methyl-4-oxo-4H-chromen-3-yl)methylene)hydrazinecarbothioamide]",1140 ± 120 nM,1260 ± 100 nM,245 to 247 °C
"Cc1ccc2occ(/C=N\Nc3nc(-c4ccccc4)cs3)c(=O)c2c1 [Compound 16, (Z)-6-Methyl-3-((2-(4-phenylthiazol-2-yl)hydrazono)methyl)-4H-chromen-4-one]",1370 ± 200 nM,1320 ± 200 nM,235 to 237 °C

# More lines, now with the values ahead:
IC50 [1],IC50 [2],melting point,SMILES
688 ± 170 nM,719 ± 100 nM,246 to 248 °C,"Cc1ccc2occ(/C=N\Nc3nc(-c4ccc(Cl)c(Cl)c4)cs3)c(=O)c2c1 [Compound 22, (Z)-3-((2-(4-(3,4-Dichlorophenyl)thiazol-2-yl)hydrazono)methyl)-6-methyl-4H-chromen-4-one]"
611 ± 290 nM,660 ± 160 nM,235 to 237 °C,"Cc1ccc2occ(/C=N\Nc3nc(-c4ccc(Br)cc4)cs3)c(=O)c2c1 [Compound 20, (Z)-3-((2-(4-(4-Bromophenyl)thiazol-2-yl)hydrazono)methyl)-6-methyl-4H-chromen-4-one]"
1310 ± 60 nM,1300 ± 110 nM,240 to 242 °C,"Cc1ccc2occ(/C=N\Nc3nc(-c4cccc([N+](=O)[O-])c4)cs3)c(=O)c2c1 [Compound 25, (Z)-6-Methyl-3-((2-(4-(3-nitrophenyl)thiazol-2-yl)hydrazono)methyl)-4H-chromen-4-one]"
990 ± 120 nM,1020 ± 40 nM,230 to 232 °C,"Cc1ccc2occ(/C=N\Nc3nc(-c4cccc(Cl)c4)cs3)c(=O)c2c1 [Compound 24, (Z)-3-((2-(4-(3-Chlorophenyl)thiazol-2-yl)hydrazono)methyl)-6-methyl-4H-chromen-4-one]"
781 ± 180 nM,584 ± 70 nM,,"Cc1ccc2occ(/C=N\Nc3nc(-c4cccc(Br)c4)cs3)c(=O)c2c1 [Compound 19, (Z)-3-((2-(4-(3-Bromophenyl)thiazol-2-yl)hydrazono)methyl)-6-methyl-4H-chromen-4-one]"
684 ± 130 nM,710 ± 90 nM,245 to 247 °C,"Cc1ccc2occ(/C=N\Nc3nc(-c4ccc(Cl)cc4Cl)cs3)c(=O)c2c1 [Compound 21, (Z)-3-((2-(4-(2,4-Dichlorophenyl)thiazol-2-yl)hydrazono)methyl)-6-methyl-4H-chromen-4-one]"
1300 ± 130 nM,1280 ± 40 nM,238 to 240 °C,"Cc1ccc2occ(/C=N\Nc3nc(-c4ccc(C#N)cc4)cs3)c(=O)c2c1 [Compound 26, (Z)-4-(2-(2-((6-Methyl-4-oxo-4H-chromen-3-yl)methylene)hydrazinyl)thiazol-4-yl)benzonitrile]"
1660 ± 600 nM,1730 ± 50 nM,230 to 232 °C,"Cc1ccc2occ(/C=N\Nc3nc(-c4ccccc4O)cs3)c(=O)c2c1 [Compound 18, (Z)-3-((2-(4-(2-Hydroxyphenyl)thiazol-2-yl)hydrazono)methyl)-6-methyl-4H-chromen-4-one]"
1340 ± 90 nM,1380 ± 50 nM,237 to 239 °C,"Cc1ccc2occ(/C=N\Nc3nc(-c4cccc(O)c4)cs3)c(=O)c2c1 [Compound 17, (Z)-3-((2-(4-(3-Hydroxyphenyl)thiazol-2-yl)hydrazono)methyl)-6-methyl-4H-chromen-4-one]"
840 ± 100 nM,820 ± 180 nM,245 to 247 °C,"Cc1ccc2occ(/C=N\Nc3nc(-c4ccc(Cl)cc4)cs3)c(=O)c2c1 [Compound 23, (Z)-3-((2-(4-(4-Chlorophenyl)thiazol-2-yl)hydrazono)methyl)-6-methyl-4H-chromen-4-one]"
1340 ± 70 nM,1290 ± 70 nM,235 to 237 °C,"Cc1ccc2occ(/C=N\Nc3nc(-c4ccc(-c5ccccc5)cc4)cs3)c(=O)c2c1 [Compound 27, (Z)-3-((2-(4-(Biphenyl-4-yl)thiazol-2-yl)hydrazono)methyl)-6-methyl-4H-chromen-4-one]"
